# From US20220372067A1, “3.ALPHA.-HYDROXY-17.BETA.-AMIDE NEUROACTIVE STEROIDS AND COMPOSITIONS THEREOF” (SAGE THERAPEUTICS, INC., priority 2018, published 2022)
# Target: GABAA receptor (TBPS binding site), rat brain cortical membranes
# Assay: [35S]-TBPS binding assay, rat brain cortical membranes in the presence of 5 mM GABA
# Settings: inhibition of 3 nM [35S]-TBPS binding
# Procedure: [^35S]-t-Butylbicyclophosphorothionate (TBPS) binding assays using rat brain cortical membranes in the presence of 5 mM GABA has been described (Gee et al, J. Pharmacol. Exp. Ther. 1987, 241, 346-353; Hawkinson et al, Mol. Pharmacol. 1994, 46, 977-985; Lewin, A. H et al., Mol. Pharmacol. 1989, 35, 189-194).
# Briefly, cortices are rapidly removed following decapitation of carbon dioxide-anesthetized Sprague-Dawley rats (200-250 g). The cortices are homogenized in 10 volumes of ice-cold 0.32 M sucrose using a glass/teflon homogenizer and centrifuged at 1500×g for 10 min at 4° C. The resultant supernatants are centrifuged at 10,000×g for 20 min at 4° C. to obtain the P2 pellets. The P2 pellets are resuspended in 200 mM NaCl/50 mM Na—K phosphate pH 7.4 buffer and centrifuged at 10,000×g for 10 min at 4° C. This washing procedure is repeated twice and the pellets are resuspended in 10 volumes of buffer. Aliquots ([…]) of the membrane suspensions are incubated with 3 nM [^35S]-TBPS and […] aliquots of test drug dissolved in dimethyl sulfoxide (DMSO) (final 0.5%) in the presence of 5 mM GABA. The incubation is brought to a final volume of 1.0 mL with buffer. Nonspecific binding is determined in the presence of […] and ranged from 15 to 25%. Following a 90 min incubation at room temp, the assays are terminated by filtration through glass fiber filters (Schleicher and Schuell No. 32) using a cell harvester (Brandel) and rinsed three times with ice-cold buffer. Filter bound radioactivity is measured by liquid scintillation spectrometry. Non-linear curve fitting of the overall data for each drug averaged for each concentration is done using Prism (GraphPad). […] The concentration of test compound producing 50% inhibition (IC50) of specific binding and the maximal extent of inhibition (Imax) are determined for the individual experiments with the same model used for the overall data and then the means±SEM.s of the individual experiments are calculated.
# Various compounds are or can be screened to determine their potential as modulators of [^35S]-TBPS binding in vitro. These assays are or can be performed in accordance with the above
row,SMILES,IC50
1,"CCOC[C@@]1(O)CC[C@H]2[C@H](CC[C@@H]3[C@@H]2CC[C@]2(C)[C@@H](C(=O)Nc4ccncc4)CC[C@@H]32)C1 [Example 1, (3R,5R,8R,9R,10S,13S,14S,17S)-3-(ethoxymethyl)-3-hydroxy-13-methyl-N-(pyridin-4-yl)hexadecahydro-1H-cyclopenta[a]phenanthrene-17-carboxamide]",< 100 nM
2,"CCOC[C@@]1(O)CC[C@H]2[C@H](CC[C@@H]3[C@@H]2CC[C@]2(C)[C@@H](C(=O)Nc4ncccc4C)CC[C@@H]32)C1 [Example 2, (3R,5R,8R,9R,10S,13S,14S,17S)-3-(ethoxymethyl)-3-hydroxy-13-methyl-N-(3-methylpyridin-2-yl)hexadecahydro-1H-cyclopenta[a]phenanthrene-17-carboxamide]",> 1000 nM
3,"CCOC[C@@]1(O)CC[C@H]2[C@H](CC[C@@H]3[C@@H]2CC[C@]2(C)[C@@H](C(=O)Nc4ncccc4C(F)(F)F)CC[C@@H]32)C1 [Example 3, (3R,5R,8R,9R,10S,13S,14S,17S)-3-(ethoxymethyl)-3-hydroxy-13-methyl-N-(3-(trifluoromethyl)pyridin-2-yl)hexadecahydro-1H-cyclopenta[a]phenanthrene-17-carboxamide]",100 to 1000 nM
4,"CCOC[C@@]1(O)CC[C@H]2[C@H](CC[C@@H]3[C@@H]2CC[C@]2(C)[C@@H](C(=O)Nc4cccc(C)n4)CC[C@@H]32)C1 [Example 4, (3R,5R,8R,9R,10S,13S,14S,17S)-3-(ethoxymethyl)-3-hydroxy-13-methyl-N-(6-methylpyridin-2-yl)hexadecahydro-1H-cyclopenta[a]phenanthrene-17-carboxamide]",< 100 nM
5,"COC[C@@]1(O)CC[C@@]2(C)[C@@H](CC[C@@H]3[C@@H]2CC[C@]2(C)[C@@H](C(=O)Nc4cccc(C)n4)CC[C@@H]32)C1 [Example 5, (3R,5S,8R,9S,10S,13S,14S,17S)-3-hydroxy-3-(methoxymethyl)-10,13-dimethyl-N-(6-methylpyridin-2-yl)hexadecahydro-1H-cyclopenta[a]phenanthrene-17-carboxamide]",< 100 nM
6,"Cc1nc2ccccn2c1NC(=O)[C@H]1CC[C@H]2[C@@H]3CC[C@@H]4C[C@](C)(O)CC[C@@H]4[C@H]3CC[C@]12C [Example 6, (3R,5R,8R,9R,10S,13S,14S,17S)-3-hydroxy-3,13-dimethyl-N-(2-methylimidazo[1,2-a]pyridin-3-yl)hexadecahydro-1H-cyclopenta[a]phenanthrene-17-carboxamide]",100 to 1000 nM
7,"COC[C@@]1(O)CC[C@H]2[C@@H](CC[C@@H]3[C@@H]2CC[C@]2(C)[C@@H](C(=O)Nc4cccc(C)n4)CC[C@@H]32)C1 [Example 7, (3R,5S,8R,9R,10S,13S,14S,17S)-3-hydroxy-3-(methoxymethyl)-13-methyl-N-(6-methylpyridin-2-yl)hexadecahydro-1H-cyclopenta[a]phenanthrene-17-carboxamide]",< 100 nM
8,"CCOC[C@@]1(O)CC[C@@]2(CC)[C@H](CC[C@H]3[C@@H]4CC[C@H](C(=O)Nc5cc(C)nn5C)[C@@]4(C)CC[C@@H]32)C1 [Example 8, (3R,5R,8S,9S,10S,13S,14S,17S)-N-(1,3-dimethyl-1H-pyrazol-5-yl)-3-(ethoxymethyl)-10-ethyl-3-hydroxy-13-methylhexadecahydro-1H-cyclopenta[a]phenanthrene-17-carboxamide]",< 100 nM
9,"CCOC[C@@]1(O)CC[C@@]2(COC(C)C)[C@H](CC[C@H]3[C@@H]4CC[C@H](C(=O)Nc5ccc(C#N)cn5)[C@@]4(C)CC[C@@H]32)C1 [Example 9, (3R,5R,8S,9S,10R,13S,14S,17S)-N-(5-cyanopyridin-2-yl)-3-(ethoxymethyl)-3-hydroxy-10-(isopropoxymethyl)-13-methylhexadecahydro-1H-cyclopenta[a]phenanthrene-17-carboxamide]",< 100 nM
10,"COC[C@@]1(O)CC[C@H]2[C@H](CC[C@@H]3[C@@H]2CC[C@]2(C)[C@@H](C(=O)Nc4ccc(F)cn4)CC[C@@H]32)C1 [Example 10, (3R,5R,8R,9R,10S,13S,14S,17S)-N-(5-fluoropyridin-2-yl)-3-hydroxy-3-(methoxymethyl)-13-methylhexadecahydro-1H-cyclopenta[a]phenanthrene-17-carboxamide]",< 100 nM
11,"CCOC[C@@]1(O)CC[C@@]2(CC)[C@H](CC[C@H]3[C@@H]4CC[C@H](C(=O)Nc5cnc(C#N)cn5)[C@@]4(C)CC[C@@H]32)C1 [Example 11, (3R,5R,8S,9S,10S,13S,14S,17S)-N-(5-cyanopyrazin-2-yl)-3-(ethoxymethyl)-10-ethyl-3-hydroxy-13-methylhexadecahydro-1H-cyclopenta[a]phenanthrene-17-carboxamide]",< 100 nM
12,"CCOC[C@@]1(O)CC[C@@]2(CC)[C@@H](CC[C@H]3[C@@H]4CC[C@H](C(=O)Nc5ccc(C#N)cn5)[C@@]4(C)CC[C@@H]32)C1 [Example 12, (3R,5S,8S,9S,10S,13S,14S,17S)-N-(5-cyanopyridin-2-yl)-3-(ethoxymethyl)-10-ethyl-3-hydroxy-13-methylhexadecahydro-1H-cyclopenta[a]phenanthrene-17-carboxamide]",< 100 nM
13,"Cc1nc2n(c1NC(=O)[C@H]1CC[C@H]3[C@@H]4CC[C@@H]5C[C@](C)(O)CC[C@@H]5[C@H]4CC[C@]13C)CCCC2 [Example 13, (3R,5R,8R,9R,10S,13S,14S,17S)-3-hydroxy-3,13-dimethyl-N-(2-methyl-5,6,7,8-tetrahydroimidazo[1,2-a]pyridin-3-yl)hexadecahydro-1H-cyclopenta[a]phenanthrene-17-carboxamide]",100 to 1000 nM
14,"C[C@]12CC[C@H]3[C@@H](CC[C@@H]4C[C@H](O)CC[C@@H]43)[C@@H]1CC[C@@H]2C(=O)Nc1cnc(C#N)cn1 [Example 14, (3R,5R,8R,9R,10S,13S,14S,17S)-N-(5-cyanopyrazin-2-yl)-3-hydroxy-13-methylhexadecahydro-1H-cyclopenta[a]phenanthrene-17-carboxamide]",< 100 nM
15,"CC[C@@]1(O)CC[C@@]2(C)[C@H](CC[C@@H]3[C@@H]2CC[C@]2(C)[C@@H](C(=O)Nc4nc(C)ccc4Cl)CC[C@@H]32)C1 [Example 15, (3R,5R,8R,9S,10S,13S,14S,17S)-N-(3-chloro-6-methylpyridin-2-yl)-3-ethyl-3-hydroxy-10,13-dimethylhexadecahydro-1H-cyclopenta[a]phenanthrene-17-carboxamide]",100 to 1000 nM
16,"CC[C@@]1(O)CC[C@H]2[C@H](CC[C@@H]3[C@@H]2CC[C@]2(C)[C@@H](C(=O)Nc4nc(C)ccc4Cl)CC[C@@H]32)C1 [Example 16, (3R,5R,8R,9R,10S,13S,14S,17S)-N-(3-chloro-6-methylpyridin-2-yl)-3-ethyl-3-hydroxy-13-methylhexadecahydro-1H-cyclopenta[a]phenanthrene-17-carboxamide]",100 to 1000 nM
17,CCOC[C@@]1(O)CC[C@H]2[C@H](CC[C@@H]3[C@@H]2CC[C@]2(C)[C@@H](C(=O)Nc4ccccn4)CC[C@@H]32)C1 [Example 20],< 100 nM
18,CCOC[C@@]1(O)CC[C@H]2[C@H](CC[C@@H]3[C@@H]2CC[C@]2(C)[C@@H](C(=O)Nc4cccnc4)CC[C@@H]32)C1 [Example 21],100 to 1000 nM
19,CCOC[C@@]1(O)CC[C@H]2[C@H](CC[C@@H]3[C@@H]2CC[C@]2(C)[C@@H](C(=O)Nc4ccc(C#N)cn4)CC[C@@H]32)C1 [Example 22],< 100 nM
20,CCOC[C@@]1(O)CC[C@H]2[C@H](CC[C@@H]3[C@@H]2CC[C@]2(C)[C@@H](C(=O)Nc4ncc(C#N)cc4C)CC[C@@H]32)C1 [Example 23],100 to 1000 nM
21,CCOC[C@@]1(O)CC[C@H]2[C@H](CC[C@@H]3[C@@H]2CC[C@]2(C)[C@@H](C(=O)Nc4cncc(C)n4)CC[C@@H]32)C1 [Example 24],< 100 nM
22,CCOC[C@@]1(O)CC[C@H]2[C@H](CC[C@@H]3[C@@H]2CC[C@]2(C)[C@@H](C(=O)Nc4cnc(C)cn4)CC[C@@H]32)C1 [Example 25],< 100 nM
23,CCOC[C@@]1(O)CC[C@H]2[C@H](CC[C@@H]3[C@@H]2CC[C@]2(C)[C@@H](C(=O)Nc4ncc(C#N)cc4Cl)CC[C@@H]32)C1 [Example 26],< 100 nM
24,CCOC[C@@]1(O)CC[C@H]2[C@H](CC[C@@H]3[C@@H]2CC[C@]2(C)[C@@H](C(=O)Nc4ccc(C#N)nc4C)CC[C@@H]32)C1 [Example 27],< 100 nM
